{
  "source": "patent US20070218456A1",
  "about": "“CELLULAR ASSAYS FOR SIGNALING RECEPTORS” (INVITROGEN CORPORATION, priority 2006, published 2007)",
  "tested_on": "T-REx™-G2A-NFAT-bla Freestyle™293F cells",
  "experiment": "T-REx G2A NFAT-bla Freestyle 293F beta-lactamase reporter assay (inducer dose response)",
  "conditions": "for EC50: Homo sapiens, FreeStyle 293-F",
  "description": "In order to control the levels of G2A expression, G2A was placed under the control of an inducible promoter using Invitrogen's T-REx™ system. To again assess feasibility, pcDNA 5 G2A/TO was transiently transfected into CRE-bla Freestyle™ and NFAT-bla Freestyle™ cell lines stably expressing the T-REx™ Tet repressor plasmid (pcDNA6/TR; e.g., catalog# V1025-20, Invitrogen, Carlsbad, Calif.). The transfected cells were then treated with 10 ug/mL, 1 ug/mL, or 100 ng/mL tetracycline for 24 h to induce G2A expression. […] Stable pools of cells were created in both the TR CRE-bla and TR NFAT-bla Freestyle™293F backgrounds.\nStimulation Kinetics—Selected pools of both CRE-bla and NFAT-bla T-REx™ G2A Freestyle™ cells were stimulated with tetracycline for 3, 4, 5, or 24 h and loaded for 2 h with 1 μM LiveBLAzer™-FRET B/G substrate.\nTo improve the balance between tetracycline-induced signaling and cell death by testing shorter induction times, lower tetracycline concentrations and altered culture conditions were utilized to promote cell health. A 16 h tetracycline stimulation time was attempted on the pools from the first sort. Cells were plated at 10,000 cells/well 24 hours prior to assay in DMEM+10% dFBS and incubated at 37° C./5% CO2 until time of assay. The cells were stimulated for 16 hours (e.g., overnight) with a dilution series of the tetracycline. Following stimulation, the cells were loaded for 2 hours at room temperature in the dark with LiveBLAzer™-FRET B/G loading solution containing 1 μM substrate. This assay was done in Poly-D-Lysine coated plates.\nSince G2A has no known agonists, doxycycline and tetracycline were compared as inducers of the assay. An antibiotic selected pool of cells were plated at 10,000 cells/well 24 hours prior to assay in DMEM+10% dFBS and incubated at 37° C./5% CO2 until time of assay. The cells were stimulated with a dilution series of each compound for 16 hours at 37° C./5% CO2 and loaded for 2 hours at room temperature in the dark with LiveBLAzer™-FRET B/G loading solution containing 1 μM substrate.\nCell Density/well—The influence of cell-plating density on assay performance was tested to find the density giving the best response and Z′ while maintaining the expected pharmacology. Cells were plated 24 hours prior to the assay at the densities indicated in FIG. 14 in DMEM+10% dFBS and incubated at 37° C./5% CO2 until the time of assay. The cells were stimulated for 16 hours at 37° C./5% CO2 with a dilution series of the doxycycline. After incubation, the cells were loaded for 2 hours at room temperature in the dark with LiveBLAzer™-FRET B/G loading solution containing 1 μM substrate.\nDMSO Tolerance—Tests were performed related to assay performance as a function of DMSO concentration to determine the robustness of the assay to the range of DMSO challenge routinely encountered during high-throughput screening. Dose response curves were performed in the presence of 0%, 0.25%, 0.5%, or 1% DMSO. Cells were plated at 10,000 cells/well 24 hours prior to assay in DMEM+10% dFBS and incubated at 37° C./5% CO2 until time of assay. After incubation, DMSO was added to the wells to final concentrations of 0%, 0.25%, 0.5% and 1% DMSO. The cells were stimulated for 16 hours with a dilution series of the doxycycline. Following stimulation, the cells were loaded for 2 hours at room temperature in the dark with LiveBLAzer™-FRET B/G loading solution containing 1 μM substrate.\nThe substrate loading times were varied to find the time for an optimal assay performance. Cells were plated at 10,000 cells/well 24 hours prior to assay in DMEM+10% dFBS and incubated at 37° C./5% CO2 until time of assay. After incubation, DMSO was added to the wells to final concentration of 0.5%.",
  "key": {"[1]": {"conditions": "60 min substrate loading, 10,000 cells/well, 0.5% DMSO, 16 h"}, "[2]": {"conditions": "90 min substrate loading, 10,000 cells/well, 0.5% DMSO, 16 h"}, "[3]": {"conditions": "120 min substrate loading, 10,000 cells/well, 0.5% DMSO, 16 h"}, "[4]": {"conditions": "representative data, 16 h, 0.5% DMSO, 2 h loading"}},
  "data": [
    {"smiles": "C[C@H]1c2cccc(O)c2C(=O)C2=C(O)[C@]3(O)C(=O)C(C(N)=O)=C(O)[C@@H](N(C)C)[C@@H]3[C@@H](O)[C@@H]21", "note": "[Doxycycline]", "values": [
      {"measurement": "RR (Max)", "setting": "0.0% DMSO, 10,000 cells/well, 16 h", "result": 6.9},
      {"measurement": "RR (Max)", "setting": "0.25% DMSO, 10,000 cells/well, 16 h", "result": 7.2},
      {"measurement": "RR (Max)", "setting": "0.50% DMSO, 10,000 cells/well, 16 h", "result": 6.5},
      {"measurement": "RR (Max)", "setting": "1.00% DMSO, 10,000 cells/well, 16 h", "result": 5.4},
      {"measurement": "RR (Max)", "setting": "1,250 cells/well, clone #20, 16 h, 0.5% DMSO", "result": 3.51},
      {"measurement": "RR (Max)", "setting": "2,500 cells/well, clone #20, 16 h, 0.5% DMSO", "result": 4.8},
      {"measurement": "RR (Max)", "setting": "[1]", "result": 4.5},
      {"measurement": "RR (Max)", "setting": "5,000 cells/well, clone #20, 16 h, 0.5% DMSO", "result": 5.93},
      {"measurement": "RR (Max)", "setting": "[2]", "result": 6.5},
      {"measurement": "RR (Max)", "setting": "[3]", "result": 6.5},
      {"measurement": "RR (Max)", "setting": "10,000 cells/well, clone #20, 16 h, 0.5% DMSO", "result": 7.7},
      {"measurement": "RR (Max)", "setting": "Average of DR 1-3", "result": 5.77},
      {"measurement": "RR (Max)", "setting": "DR 1 (reproducibility, separate day)", "result": 5.36},
      {"measurement": "RR (Max)", "setting": "DR 2 (reproducibility, separate day)", "result": 5.95},
      {"measurement": "RR (Max)", "setting": "DR 3 (reproducibility, separate day)", "result": 5.99},
      {"measurement": "RR (Max)", "setting": "Fresh cells taken from culture", "result": 5.99},
      {"measurement": "RR (Max)", "setting": "Frozen cells thawed immediately before use", "result": 2.48},
      {"measurement": "EC50", "setting": "[1]", "result": 0.162, "unit": "ng/mL"},
      {"measurement": "EC50", "setting": "[2]", "result": 0.151, "unit": "ng/mL"},
      {"measurement": "EC50", "setting": "[3]", "result": 0.172, "unit": "ng/mL"},
      {"measurement": "EC50", "setting": "16 h, 0.0% DMSO, 10,000 cells/well", "result": 0.159, "unit": "ng/mL"},
      {"measurement": "EC50", "setting": "16 h, 0.25% DMSO, 10,000 cells/well", "result": 0.197, "unit": "ng/mL"},
      {"measurement": "EC50", "setting": "16 h, 0.50% DMSO, 10,000 cells/well", "result": 0.172, "unit": "ng/mL"},
      {"measurement": "EC50", "setting": "16 h, 1.00% DMSO, 10,000 cells/well", "result": 0.187, "unit": "ng/mL"},
      {"measurement": "EC50", "setting": "16 h, 1,250 cells/well, clone #20, 16 h, 0.5% DMSO", "result": 0.305, "unit": "ng/mL"},
      {"measurement": "EC50", "setting": "16 h, 2,500 cells/well, clone #20, 16 h, 0.5% DMSO", "result": 0.216, "unit": "ng/mL"},
      {"measurement": "EC50", "setting": "16 h, 5,000 cells/well, clone #20, 16 h, 0.5% DMSO", "result": 0.199, "unit": "ng/mL"},
      {"measurement": "EC50", "setting": "16 h, 10,000 cells/well, clone #20, 16 h, 0.5% DMSO", "result": 0.291, "unit": "ng/mL"},
      {"measurement": "EC50", "setting": "16 h, DR 1 (reproducibility, separate day), 10,000 cells/well, 0.5% DMSO", "result": 0.246, "unit": "ng/mL"},
      {"measurement": "EC50", "setting": "16 h, DR 2 (reproducibility, separate day), 10,000 cells/well, 0.5% DMSO", "result": 0.0963, "unit": "ng/mL"},
      {"measurement": "EC50", "setting": "16 h, DR 3 (reproducibility, separate day), 10,000 cells/well, 0.5% DMSO", "result": 0.0533, "unit": "ng/mL"},
      {"measurement": "EC50", "setting": "16 h, Fresh cells taken from culture, 10,000 cells/well", "result": 0.0533, "unit": "ng/mL"},
      {"measurement": "EC50", "setting": "16 h, Frozen cells thawed immediately before use, 10,000 cells/well, 16 h", "result": "> 0.985", "unit": "ng/mL"},
      {"measurement": "EC50", "setting": "Average of DR 1-3", "result": 0.132, "unit": "ng/mL"},
      {"measurement": "EC50", "setting": "antibiotic selected pool, 10,000 cells/well, 16 h stimulation, 2 h loading", "result": 1.6, "unit": "ng/mL"},
      {"measurement": "EC50", "setting": "[4]", "result": 0.05, "unit": "ng/mL"},
      {"measurement": "RR (Max)", "setting": "antibiotic selected pool, 10,000 cells/well, 16 h stimulation", "result": 3.3},
      {"measurement": "times more potent than tetracycline", "setting": "antibiotic selected pool, 16 h", "result": "~30", "unit": "times"},
      {"measurement": "EC100", "setting": "[4]", "result": 2.2, "unit": "ng/mL"}
    ]}
  ]
}
